From PubChem BioAssay AID1963873 (Molecular Pharmacology Branch, DTP, NCI, 2024)
pIC50: −log10 of the molar value.

Test system: 276233-004-R-J1-PDC KRAS spheroids with HUVEC/MSC, viability
Assay: Anticancer human tumor 276233-004-R-J1-PDC patient-derived colon adenocarcinoma cell line growth inhibition [KRAS2]
Settings: for pIC50: curve of first compound; for viability, T/C: stronger effect = lower value
How it was run: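 Combination screen of spheroid viability in tumor-cell co-cultures with endothelial (HUVEC) and mesenchymal stem cell stroma. Each agent was tested in half-log dilutions, topping at clinical Cmax or at 10 microM without a known Cmax.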

[1] = second compound 0.1 µM, first compound 0.000316 µM
[2] = second compound 0.1 µM, first compound 0.001 µM
[3] = second compound 0.1 µM, first compound 0.00316 µM
[4] = second compound 0.1 µM, first compound 0.01 µM
[5] = second compound 0.1 µM, first compound 0.0316 µM
[6] = second compound 0.1 µM, first compound 0.1 µM
[7] = second compound 0.316 µM, first compound 0.000316 µM
[8] = second compound 0.316 µM, first compound 0.001 µM
[9] = second compound 0.316 µM, first compound 0.00316 µM
[10] = second compound 0.316 µM, first compound 0.01 µM
[11] = second compound 0.316 µM, first compound 0.0316 µM
[12] = second compound 0.316 µM, first compound 0.1 µM
[13] = second compound 1 µM, first compound 0.000316 µM
[14] = second compound 1 µM, first compound 0.001 µM
[15] = second compound 1 µM, first compound 0.00316 µM
[16] = second compound 1 µM, first compound 0.01 µM
[17] = second compound 1 µM, first compound 0.0316 µM
[18] = second compound 1 µM, first compound 0.1 µM
[19] = second compound 3.16 µM, first compound 0.000316 µM
[20] = second compound 3.16 µM, first compound 0.001 µM
[21] = second compound 3.16 µM, first compound 0.00316 µM
[22] = second compound 3.16 µM, first compound 0.01 µM
[23] = second compound 3.16 µM, first compound 0.0316 µM
[24] = second compound 3.16 µM, first compound 0.1 µM
[25] = second compound 10 µM, first compound 0.000316 µM
[26] = second compound 10 µM, first compound 0.001 µM
[27] = second compound 10 µM, first compound 0.00316 µM
[28] = second compound 10 µM, first compound 0.01 µM
[29] = second compound 10 µM, first compound 0.0316 µM
[30] = second compound 10 µM, first compound 0.1 µM
[31] = second compound 0.1 µM, first compound 0.316 µM
[32] = second compound 0.1 µM, first compound 1 µM
[33] = second compound 0.316 µM, first compound 0.316 µM
[34] = second compound 0.316 µM, first compound 1 µM
[35] = second compound 1 µM, first compound 0.316 µM
[36] = second compound 1 µM, first compound 1 µM
[37] = second compound 3.16 µM, first compound 0.316 µM
[38] = second compound 3.16 µM, first compound 1 µM
[39] = second compound 10 µM, first compound 0.316 µM
[40] = second compound 10 µM, first compound 1 µM
[41] = second compound 0.1 µM, first compound 3.16 µM
[42] = second compound 0.1 µM, first compound 10 µM
[43] = second compound 0.316 µM, first compound 3.16 µM
[44] = second compound 0.316 µM, first compound 10 µM
[45] = second compound 1 µM, first compound 3.16 µM
[46] = second compound 1 µM, first compound 10 µM
[47] = second compound 3.16 µM, first compound 3.16 µM
[48] = second compound 3.16 µM, first compound 10 µM
[49] = second compound 10 µM, first compound 3.16 µM
[50] = second compound 10 µM, first compound 10 µM
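Further: cells exposed to agents for seven days before viability read.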
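Wherever viability, T/C is given: 100% = DMSO vehicle control wells and lower values mean fewer viable cells.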

| Structure (SMILES) | pIC50 (second compound 0.1 µM) | pIC50 (second compound 0.316 µM) | pIC50 (second compound 1 µM) | pIC50 (second compound 3.16 µM) | pIC50 (second compound 10 µM) | viability, T/C [4] [%] | viability, T/C [5] [%] | viability, T/C [6] [%] | viability, T/C [10] [%] | viability, T/C [11] [%] | viability, T/C [12] [%] | viability, T/C [16] [%] | viability, T/C [17] [%] | viability, T/C [18] [%] | viability, T/C [22] [%] | viability, T/C [23] [%] | viability, T/C [24] [%] | viability, T/C [28] [%] | viability, T/C [29] [%] | viability, T/C [30] [%] | other results |
| --- | --- | --- | --- | --- | --- | --- | --- | --- | --- | --- | --- | --- | --- | --- | --- | --- | --- | --- | --- | --- | --- |
| CC(C)n1nc(-c2ccc3oc(N)nc3c2)c2c(N)ncnc21 + COc1cc2nc(C)nc(NC(C)c3cc(N)cc(C(F)(F)F)c3)c2cc1OC1CCOC1 | < 7.00 | < 7.00 | 7.37 | < 7.00 | > 9.50 | 68 | 64.7 | 50.8 | 70.9 | 68 | 56.5 | 56.8 | 54.5 | 46 | 61.9 | 63.2 | 50.3 | 32.5 | 32.2 | 29.3 | viability, T/C [1]: 90.1%; viability, T/C [2]: 120%; viability, T/C [3]: 76.7%; viability, T/C [7]: 109%; viability, T/C [8]: 86.3%; viability, T/C [9]: 71.6%; viability, T/C [13]: 108%; viability, T/C [14]: 92.5%; viability, T/C [15]: 86.5%; viability, T/C [19]: 76.7%; viability, T/C [20]: 83.4%; viability, T/C [21]: 76.4%; viability, T/C [25]: 18.3%; viability, T/C [26]: 22.9%; viability, T/C [27]: 19.1% |
| COc1cc(OC)cc(N(CCNC(C)C)c2ccc3ncc(-c4cnn(C)c4)nc3c2)c1 |  |  |  |  |  |  |  |  |  |  |  |  |  |  |  |  |  |  |  |  | viability, T/C (compound 0.0316 µM): 76.3% [middle of 5 runs]; viability, T/C (compound 0.1 µM): 67.4% [middle of 5 runs]; viability, T/C (compound 0.316 µM): 67% [middle of 5 runs] |
| COc1cc2nc(C)nc(NC(C)c3cc(N)cc(C(F)(F)F)c3)c2cc1OC1CCOC1 (centres undefined) |  |  |  |  |  |  |  |  |  |  |  |  |  |  |  |  |  |  |  |  | IC50 (compound alone, run of 07/26/2021): 8.44 µM [middle of 6 runs] |
| CCN1CCN(Cc2ccc(Nc3ncc(F)c(-c4cc(F)c5nc(C)n(C(C)C)c5c4)n3)nc2)CC1 + C=CC(=O)N1CCN(c2nc(=O)n(-c3c(C)ccnc3C(C)C)c3nc(-c4c(O)cccc4F)c(F)cc23)C(C)C1 | < 6.00 | < 6.00 | < 6.00 | < 6.00 | < 6.00 | 105 | 83.5 | 98.2 | 78.8 | 82.4 | 81.8 | 118 | 93.7 | 88.8 | 101 | 91.2 | 80.2 | 68.2 | 69.7 | 70.3 | viability, T/C [3]: 85.7%; viability, T/C [31]: 88.1%; viability, T/C [32]: 106%; viability, T/C [9]: 100%; viability, T/C [33]: 101%; viability, T/C [34]: 125%; viability, T/C [15]: 95%; viability, T/C [35]: 110%; viability, T/C [36]: 101%; viability, T/C [21]: 92.7%; viability, T/C [37]: 74.2%; viability, T/C [38]: 119%; viability, T/C [27]: 62.9%; viability, T/C [39]: 87.1%; viability, T/C [40]: 65.4% |
| CC(C)NCC(C(=O)N1CCN(c2ncnc3c2C(C)CC3O)CC1)c1ccc(Cl)cc1 (centres undefined) + CNCc1ccccc1-c1csc(C(C)Nc2nc(C)nc3cc(OC)c(OC)cc23)c1 | < 5.00 | < 5.00 | 6.25 | > 7.50 | > 7.50 |  | 77.2 | 69.9 |  | 88.3 | 96.1 |  | 66.9 | 50.1 |  | 0.57 | 0.54 |  | 0.2 | 0.22 | viability, T/C [31]: 79.5%; viability, T/C [32]: 78.8%; viability, T/C [41]: 66%; viability, T/C [42]: 53.6%; viability, T/C [33]: 76.4%; viability, T/C [34]: 70.6%; viability, T/C [43]: 70.4%; viability, T/C [44]: 58.6%; viability, T/C [35]: 78.5%; viability, T/C [36]: 34.9%; viability, T/C [45]: 23.9%; viability, T/C [46]: 38.2%; viability, T/C [37]: 0.43%; viability, T/C [38]: 0.58%; viability, T/C [47]: 0.56%; viability, T/C [48]: 0.49%; viability, T/C [39]: 0.18%; viability, T/C [40]: 0.2%; viability, T/C [49]: 1.04%; viability, T/C [50]: 0.31% |
| CCNC(=O)CC1N=C(c2ccc(Cl)cc2)c2cc(OC)ccc2-n2c(C)nnc21 (centres undefined) + CC1OCC2(CCN(c3cnc(Sc4ccnc(N)c4Cl)c(N)n3)CC2)C1N | < 5.00 | 5.15 | 5.50 | 6.41 | 6.28 |  | 94.5 | 85.6 |  | 89 | 73.1 |  | 79.8 | 71.5 |  | 72.6 | 71.6 |  | 55 | 56.6 | viability, T/C [31]: 71.5%; viability, T/C [32]: 66.8%; viability, T/C [41]: 56.4%; viability, T/C [42]: 72.8%; viability, T/C [33]: 73.6%; viability, T/C [34]: 58.2%; viability, T/C [43]: 52.5%; viability, T/C [44]: 49.1%; viability, T/C [35]: 63.9%; viability, T/C [36]: 52.5%; viability, T/C [45]: 46.9%; viability, T/C [46]: 52.2%; viability, T/C [37]: 51.5%; viability, T/C [38]: 44.4%; viability, T/C [47]: 43.3%; viability, T/C [48]: 41.4%; viability, T/C [39]: 52.2%; viability, T/C [40]: 48.2%; viability, T/C [49]: 41.6%; viability, T/C [50]: 42.4% |
| CC1COCCN1c1cc(-c2ccnn2C)c2ccnc(-c3ccn[nH]3)c2n1 (centres undefined) + CNCc1ccccc1-c1csc(C(C)Nc2nc(C)nc3cc(OC)c(OC)cc23)c1 | < 5.50 | < 5.50 | < 5.50 | > 8.00 | > 8.00 | 93.1 | 95.5 | 90.2 | 93.2 | 94.1 | 87.7 | 82 | 86.7 | 69.9 | 0.49 | 1.11 | 1.38 | 0.67 | 3.53 | 0.82 | viability, T/C [31]: 82.8%; viability, T/C [32]: 70%; viability, T/C [41]: 57%; viability, T/C [33]: 85.3%; viability, T/C [34]: 77.9%; viability, T/C [43]: 59.1%; viability, T/C [35]: 63.1%; viability, T/C [36]: 57.7%; viability, T/C [45]: 50.9%; viability, T/C [37]: 1.8%; viability, T/C [38]: 2.11%; viability, T/C [47]: 1.03%; viability, T/C [39]: 0.17%; viability, T/C [40]: 0.15%; viability, T/C [49]: 2.79% |
| CN(C)C/C=C/C(=O)Nc1cc2c(Nc3ccc(F)c(Cl)c3)ncnc2cc1O[C@H]1CCOC1 + CNCc1ccccc1-c1csc(C(C)Nc2nc(C)nc3cc(OC)c(OC)cc23)c1 | < 7.00 | < 7.00 | < 7.00 | > 9.50 | > 9.50 | 95.2 | 86.8 | 74.7 | 73 | 67.9 | 69.8 | 81.2 | 63 | 79.2 | 3.46 | 8.28 | 1.18 | 0.19 | 0.88 | 0.67 | viability, T/C [1]: 95.8%; viability, T/C [2]: 106%; viability, T/C [3]: 89%; viability, T/C [7]: 95.9%; viability, T/C [8]: 82.5%; viability, T/C [9]: 83.1%; viability, T/C [13]: 81.4%; viability, T/C [14]: 73.5%; viability, T/C [15]: 77.3%; viability, T/C [19]: 4.26%; viability, T/C [20]: 2.41%; viability, T/C [21]: 3.56%; viability, T/C [25]: 5.68%; viability, T/C [26]: 0.19%; viability, T/C [27]: 0.31% |
